These results are taken from patent publication US20110244025A1, “MODIFIED OLIGORIBONUCLEOTIDE ANALOGS WITH ENHANCED IMMUNOSTIMULATORY ACTIVITY” (priority 2005, published 2011).

A short description of data set [1]: Stability against nuclease degradation in human serum (IP-RP-HPLC). The format is in vitro ADME. As for the experimental part: Oligoribonucleotides R-1075 (SEQ ID NO:206), without triethylene glycol (teg) modification, and R-1907, with teg modification, were analysed using ion-pair reverse phase high pressure liquid chromatography (IP-RP-HPLC) following incubation in water or human serum for 1 to 60 minutes. While both of these oligoribonucleotides have fully phosphorothioate backbones, R-1075 is more than twice as long (18 nucleotides) as R-1907 (8 nucleotides). R-1075 incubated in water for 1 minute produced a single, sharp peak upon IP-RP-HPLC. […] R-1907 also produced a single, sharp peak following incubation in water for 1 minute. […] In fact, the peak height for R-1907 decreased by only about 50 percent following incubation in human serum for 60 minutes.

The subject of data set [2] is human peripheral blood mononuclear cells (PBMC). Put plainly: IFN-α production by human PBMC (ELISA of culture supernatants). The format is cell-based. The settings on record: human PBMC from three donors, 24 hours, oligonucleotide 0.001-4 μM, in the presence of DOTAP (20 μg/ml); FIG. 1 and FIG. 2. The protocol: (§1) Human peripheral blood mononuclear cells (PBMC) were isolated from three donors and incubated for 24 hours in the presence of various test or control oligonucleotides or control conditions, in either the presence or absence of DOTAP (20 μg/ml). Oligonucleotides were added at different concentrations ranging from 0.001-4 μM. Culture supernatants were then collected and then analyzed by separate enzyme-linked immunosorbent assays (ELISAs) specific for human interferon alpha (IFN-α) and tumor necrosis factor alpha (TNF-α).
(§2) Control oligonucleotides and conditions included R-1012, rU*rU*rU*rU*rU*rU*rU*rU, where * represents phosphorothioate linkage and rU represents uridine; R-1075 (SEQ ID NO:206, fully phosphorothioate backbone), R-1362, rU*rU*rG*rU*rU*rG*rU*rU*rG*rU*rU*rG*rU*rU*rG*rU*rU*rG*rU*rU (SEQ ID NO:331), where * again represents phosphorothioate linkage, rU again represents uridine, and rG represents guanosine; CpG oligodeoxynucleotide 2395, T*C*G*T*C*G*T*T*T*T*C*G*G*C*G*C*G*C*G*C*C*G (SEQ ID NO:330), lipopolysaccharide (LPS), DOTAP, and no additive (w/o).
(§3) Test oligonucleotides included the following modifications of R-1012: R-1907, rU*rU*rU*rU*rU*rU*rU*rU-teg, where teg represents triethylene glycol; R-1908, rU*rU*rU*rU*rU*rU*rU*5SrU-teg, where 5S represents a linkage according to Formula II wherein X is O, X^1 is SH, X^2 is O, and X^3 is S; R-1909, rU*rU*rU*rU*rU*5SrU*rU*5SrU-teg; R-1910, rU*rU*rU*5SrU*rU*5SrU*rU*5SrU-teg; and R-1911, rU*5SrU*rU*5SrU*rU*5SrU*rU*5SrU-teg.
Background: An ELISA detects its analyte on a solid surface through an enzyme-linked reagent.

The test system is the same in data set [3]. Description: TNF-α production by human PBMC (ELISA of culture supernatants). The format is cell-based. As to conditions: human PBMC from three donors, 24 hours, oligonucleotide 0.001-4 μM, in the presence of DOTAP (20 μg/ml); FIG. 3 and FIG. 4. As for the experimental part:
as §1, §2, §3

Entries after “also recorded” stand apart in the source; their conditions may differ. Read-outs that look alike come from different tables or passages of the source. Oligonucleotides are written 5' to 3', each unit as a sugar letter and its base; * is a phosphorothioate linkage, no mark a phosphodiester; rarer units and linkages stand in square brackets, end groups in braces. Plain capitals give the bases only. r = 2'-OH (RNA)

For “R-1075: control oligoribonucleotide, SEQ ID NO:206 (CCGUCUGUUGUGUGACUC), fully phosphorothioate backbone, 18 nucleotides, without teg modification (rC*rC*rG*rU*rC*rU*rG*rU*rU*rG*rU*rG*rU*rG*rA*rC*rU*rC) [reference compound]”, the “IP-RP-HPLC peak of the oligoribonucleotide after incubation in human serum” value in data set [1] (human serum, 1 minute, compared with incubation in water for 1 minute) is on record as “essentially completely disappeared”.
Turning to “rU*5SrU*rU*5SrU*rU*5SrU*rU*5SrU-teg [R-1911]”, the IFN-α production result in data set [2] is on record as “did not induce significant amounts of IFN-α”. Further, the TNF-α production entry in data set [3] is “significantly higher amounts of TNF-a compared to unmodified R-1012”.
As for “rU*rU*rU*5SrU*rU*5SrU*rU*5SrU-teg [R-1910]”, the IFN-α production result in data set [2] is given as “did not induce significant amounts of IFN-α”. Also, in data set [3], the TNF-α production result is “significantly higher amounts of TNF-a compared to unmodified R-1012”.
“rU*rU*rU*rU*rU*5SrU*rU*5SrU-teg [R-1909]”: in data set [2], the IFN-α production result is listed as “increase in IFN-α induction compared to R-1907”. The TNF-α production entry in data set [3] was “significantly higher amounts of TNF-a compared to unmodified R-1012”.
Regarding rU*rU*rU*rU*rU*rU*rU*5SrU-teg [R-1908], the IFN-α production result in data set [2] is reported as “increase in IFN-α induction compared to R-1907”. Further, the TNF-α production entry in data set [3] was “significantly higher amounts of TNF-a compared to unmodified R-1012”.
For rU*rU*rU*rU*rU*rU*rU*rU-teg [R-1907], in data set [2], the IFN-α production entry is recorded as “reduced IFN-α production compared to unmodified R-1012”. Further, the TNF-α production entry in data set [3] is given as “enhanced TNF-α production compared to unmodified R-1012; also recorded: significantly higher amounts of TNF-a compared to unmodified R-1012”. Besides, in data set [1], the “IP-RP-HPLC peak of the oligoribonucleotide after incubation in human serum” value is on record as “persisted essentially unchanged” and the “decrease of IP-RP-HPLC peak height after incubation in human serum” value is on record as “about 50%”.
